The text below walks through data of ChEMBL document CHEMBL4196039, “Pan-NS3 protease inhibitors of hepatitis C virus based on an R3-elongated pyrazinone scaffold” (Eur J Med Chem, 2018).

Series [1] addresses T1, NS3 (Hepatitis C virus, UniProt A3EZJ3). Kind of series: Inhibition of HCV genotype-1a full length NS3 protease preincubated for 10 mins followed by Ac-DED(Edans)EEAbuj-[COO]ASK(Dabcyl)-NH2 addition in presence of co-factor 2K-NS4A by fluorescence assay. On the set-up: species or system Hepatitis C virus subtype 1a.
A further series relates to Hepatitis C virus. Nature of the series: Antiviral activity against HCV genotype 1b infected in human HuH7 cells. It counts as functional, organism-based, Hepacivirus hominis. The conditions noted are these: Huh-7.
A short description of series [2]: Cytotoxicity against human HuH7 cell. Type of series: cell-based, Huh-7. The note with it: HuH7 cells.
Series [3] addresses NS3 (Hepatitis C virus, UniProt A3EZJ3, R155K). Nature of the series: Inhibition of HCV genotype-1a full length NS3 protease R155K mutant preincubated for 10 mins followed by Ac-DED(Edans)EEAbuj-[COO]ASK(Dabcyl)-NH2 addition in presence of co-factor 2K-NS4A by fluorescence assay. The arrangement: species or system Hepatitis C virus subtype 1a.
Series [4] addresses T1, NS3. Kind of series: Inhibition of HCV genotype-3a full length NS3 protease preincubated for 10 mins followed by Ac-DED(Edans)EEAbuj-[COO]ASK(Dabcyl)-NH2 addition in presence of co-factor 2K-NS4A by fluorescence assay. On the set-up: species or system Hepatitis C virus subtype 3a.
Series [5] concerns the target T1, NS3. Kind of series: Inhibition of HCV genotype-1a NS3 protease. The arrangement: species or system Hepatitis C virus subtype 1a.

Non-standard residues stand in square brackets, D forms with d. Residues, ends and D or L forms follow the SMILES beside them. dGla = N[C@H](CC(C(=O)O)C(=O)O)C(=O)O; Cha = N[C@@H](CC1CCCCC1)C(=O)O

T1 sequence (A3EZJ3 whole entry): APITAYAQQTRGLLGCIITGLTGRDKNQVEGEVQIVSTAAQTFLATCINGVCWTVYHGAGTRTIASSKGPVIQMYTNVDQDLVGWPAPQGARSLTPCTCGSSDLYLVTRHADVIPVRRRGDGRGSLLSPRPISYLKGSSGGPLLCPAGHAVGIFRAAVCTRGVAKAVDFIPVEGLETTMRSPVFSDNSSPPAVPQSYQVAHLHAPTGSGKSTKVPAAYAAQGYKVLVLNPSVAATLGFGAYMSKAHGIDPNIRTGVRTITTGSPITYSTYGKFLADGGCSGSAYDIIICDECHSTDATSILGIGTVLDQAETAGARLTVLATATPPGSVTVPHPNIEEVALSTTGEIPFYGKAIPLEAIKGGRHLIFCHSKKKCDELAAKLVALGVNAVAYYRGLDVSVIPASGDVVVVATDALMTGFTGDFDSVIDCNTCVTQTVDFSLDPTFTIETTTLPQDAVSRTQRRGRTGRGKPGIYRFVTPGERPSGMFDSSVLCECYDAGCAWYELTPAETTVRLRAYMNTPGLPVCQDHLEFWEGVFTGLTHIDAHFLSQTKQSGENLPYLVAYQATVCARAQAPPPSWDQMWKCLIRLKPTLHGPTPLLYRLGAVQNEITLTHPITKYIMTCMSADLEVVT
Chain of NS3 (Hepatitis C virus, UniProt A3EZJ3, R155K) (A3EZJ3 entry or part of it R155K): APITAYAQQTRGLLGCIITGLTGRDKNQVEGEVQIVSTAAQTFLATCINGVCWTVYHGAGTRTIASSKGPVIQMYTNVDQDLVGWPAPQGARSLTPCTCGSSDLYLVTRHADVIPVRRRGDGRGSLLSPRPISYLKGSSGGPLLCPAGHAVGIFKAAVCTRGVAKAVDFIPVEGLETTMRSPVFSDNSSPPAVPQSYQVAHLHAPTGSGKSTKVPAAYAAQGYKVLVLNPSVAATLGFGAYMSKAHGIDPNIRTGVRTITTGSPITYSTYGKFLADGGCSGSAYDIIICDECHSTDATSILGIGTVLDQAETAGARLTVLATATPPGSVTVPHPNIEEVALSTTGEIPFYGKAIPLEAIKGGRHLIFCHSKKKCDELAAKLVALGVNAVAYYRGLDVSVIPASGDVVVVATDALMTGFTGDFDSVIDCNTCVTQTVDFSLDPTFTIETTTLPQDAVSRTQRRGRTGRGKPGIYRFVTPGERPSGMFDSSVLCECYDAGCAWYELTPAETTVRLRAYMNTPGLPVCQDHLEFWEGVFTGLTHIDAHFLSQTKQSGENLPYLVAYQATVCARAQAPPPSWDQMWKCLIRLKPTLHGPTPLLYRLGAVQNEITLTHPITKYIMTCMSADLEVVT

Regarding `CC1(C)CC(=O)N(C[C@@H](NC(=O)Nc2nc(Cl)c(CCC3CCCCC3)n(CC(=O)Nc3cc(F)ccc3C(=O)NS(=O)(=O)c3ccc(C(F)(F)F)cc3)c2=O)C(C)(C)C)C(=O)C1`, the Ki stood at 30 nM on NS3 [1], 2 nM at NS3 [3] and 5.4 nM on NS3 [4]. In the series with Hepatitis C virus, this compound had an EC50 of 7100 nM. Besides, the CC50 in series [2] amounted to 26000 nM.

Take `CC(C)(C)NC(=O)Nc1nc(Cl)c(Cc2cccc3ccccc23)n(CC(=O)Nc2ccccc2S(=O)(=O)NC(=O)c2ccc(C(F)(F)F)cc2)c1=O`: at NS3 [4], the Ki turned out to be 170 nM.

On to `O=C(Cn1c(Cc2ccccc2)c(Cl)nc(NNC(=O)c2ccccc2)c1=O)Nc1ccccc1C(=O)NS(=O)(=O)c1ccc(C(F)(F)F)cc1`, for which the Ki on NS3 [1] was determined as 1650 nM. Turning to `CC[C@H](C)[C@H](NC(=O)[C@H](CC(C)C)NC(=O)[C@@H](CC(C(=O)O)C(=O)O)NC(=O)[C@H](CC(=O)O)NC(C)=O)C(=O)N[C@@H](CC1CCCCC1)C(=O)N[C@@H](CS)C(=O)O` (Ac-D[dGla]LI[Cha]C-OH), the Ki on NS3 [1] stood at 9 nM. Take `CC(C)(C)NC(=O)Nc1nc(Cl)c(CCC2CCCCC2)n(CC(=O)NC2(C(=O)NS(=O)(=O)c3ccc(C(F)(F)F)cc3)CC(OCc3ccccc3)C2)c1=O` (stereo not given): on NS3 [4], the Ki came to 68 nM. Same read-out and setting: under `CC(C)(C)NC(=O)Nc1nc(Cl)c(CCC2CCCCC2)n(CC(=O)Nc2cc(-c3cncnc3)ccc2C(=O)NS(=O)(=O)c2ccc(C(F)(F)F)cc2)c1=O` stands 87 nM. Still for that read-out and setting: the value for `CC(C)(C)NC(=O)Nc1nc(Cl)c(CCC2CCCCC2)n(CC(=O)Nc2ccccc2C(=O)O)c1=O` was 70 nM. Take `CC(C)(C)N1CCN(c2nc(Cl)c(Cc3ccccc3)n(CC(=O)Nc3ccccc3C(=O)NS(=O)(=O)c3ccc(C(F)(F)F)cc3)c2=O)C1=O`: the Ki at NS3 [1] turned out to be 380 nM. As for `COc1ccc2c(O[C@@H]3C[C@H]4C(=O)N[C@]5(C(=O)O)C[C@H]5/C=C\CCCCC[C@H](NC(=O)OC5CCCC5)C(=O)N4C3)cc(-c3csc(NC(C)C)n3)nc2c1` [CILUPREVIR], the Ki at NS3 [5] came to 0.089 nM; on NS3 [4] it was 20 nM. This compound returned a CC50 in series [2] of more than 100 nM. As for `CC(C)(C)[C@@H](CNS(=O)(=O)c1cccnc1)NC(=O)Nc1nc(Cl)c(Cc2ccccc2)n(CC(=O)Nc2cc(F)ccc2C(=O)NS(=O)(=O)c2ccc(C(F)(F)F)cc2)c1=O`, the inhibition constant Ki was determined as 190 nM at NS3 [1] and 40 nM at NS3 [3].

As to `CC1(C)CC(=O)N(C[C@@H](NC(=O)Nc2nc(Cl)c(Cc3ccccc3)n(CC(=O)Nc3cc(F)ccc3C(=O)NS(=O)(=O)c3ccc(C(F)(F)F)cc3)c2=O)C(C)(C)C)C(=O)C1`, the Ki stood at 160 nM at NS3 [1], 30 nM on NS3 [3] and 135 nM at NS3 [4].
